In ChEMBL document CHEMBL1201862, “PubChem BioAssay data set” (2004):
Calls of active or inactive are those of the source.

Tests used:
[1] = target: T1, Alkaline phosphatase, tissue-nonspecific isozyme (Homo sapiens, UniProt P05186); assay: inhibition of tissue-nonspecific alkaline phosphatase – biochemical, dose response (AID 488882); format: functional
T1 sequence (P05186 whole entry): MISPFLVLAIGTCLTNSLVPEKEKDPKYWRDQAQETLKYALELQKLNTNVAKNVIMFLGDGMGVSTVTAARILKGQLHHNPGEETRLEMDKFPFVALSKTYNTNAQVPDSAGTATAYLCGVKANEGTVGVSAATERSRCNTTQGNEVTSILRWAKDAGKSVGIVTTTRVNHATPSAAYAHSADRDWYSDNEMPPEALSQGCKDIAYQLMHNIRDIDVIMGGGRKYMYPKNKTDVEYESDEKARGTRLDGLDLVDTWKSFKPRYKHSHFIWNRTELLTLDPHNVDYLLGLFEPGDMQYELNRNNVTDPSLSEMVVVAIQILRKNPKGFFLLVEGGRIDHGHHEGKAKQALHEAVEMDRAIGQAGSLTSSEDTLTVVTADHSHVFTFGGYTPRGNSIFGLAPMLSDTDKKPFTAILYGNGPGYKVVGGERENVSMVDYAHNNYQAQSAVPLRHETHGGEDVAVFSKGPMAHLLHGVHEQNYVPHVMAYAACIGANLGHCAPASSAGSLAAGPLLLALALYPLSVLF

[2] = target: T1, Alkaline phosphatase, tissue-nonspecific isozyme; assay: TNAP enzyme inhibition by screening hits, dose response, selectivity assay for mouse IAP inhibitor project, biochemical, human TNAP, uHTS hits (AID 488906); format: functional
[3] = tested on: HeLa; assay: HeLa cell cytotoxicity, dose response, cytotoxicity control, 24 h, cherry-picked samples (AID 504726); format: functional, cell-based; settings: Homo sapiens;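 note: potency for cytotoxicity as loss of luminescence signal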
[4] = HepG2 cell cytotoxicity, dose response, cytotoxicity control for Shn3 inhibitor project, CellTiter-Glo, cherry-picked (AID 624134); format: functional, cell-based
[5] = target: Serine/threonine-protein kinase BRSK1 (Homo sapiens, UniProt Q8TDC3); format: functional;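 note: measured within a kinome-wide kinase panel, with the target listed as KIAA1811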
[6] = target: Protein kinase C theta type (Homo sapiens, UniProt Q04759); assay: Navigating the Kinome. Panel member name: PRKCQ; format: functional
[7] = target: Serine/threonine-protein kinase PLK4 (Homo sapiens, UniProt O00444); format: functional;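 note: PLK4 measured as one member of a kinome-wide kinase profiling panel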
[8] = target: Proto-oncogene tyrosine-protein kinase ROS (Homo sapiens, UniProt P08922); format: functional;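 note: ROS1 tested as one member of a kinome-wide kinase panel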
[9] = target: Proto-oncogene tyrosine-protein kinase receptor Ret (Homo sapiens, UniProt P07949); format: functional;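 note: measured within a kinome-wide profiling panel, RET as the panel member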
[10] = target: Serine/threonine-protein kinase DCLK1 (Homo sapiens, UniProt O15075); format: functional;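 note: affinity for DCLK1 (listed as DCAMKL1) measured as one member of a kinome-wide kinase profiling panel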
[11] = target: Serine/threonine-protein kinase PLK1 (Homo sapiens, UniProt P53350); format: functional;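 note: PLK1 measured as one member of a kinome-wide profiling panel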
[12] = target: STE20-like serine/threonine-protein kinase (Homo sapiens, UniProt Q9H2G2); format: functional
[13] = target: Testis-specific serine/threonine-protein kinase 2 (Homo sapiens, UniProt Q96PF2); format: functional;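 note: part of the Navigating the Kinome panel, target entry STK22B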
[14] = target: Tyrosine-protein kinase receptor TYRO3 (Homo sapiens, UniProt Q06418); format: functional;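 note: TYRO3 value obtained as one member of a kinome-wide profiling panel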
[15] = target: cAMP-dependent protein kinase catalytic subunit alpha (Homo sapiens, UniProt P17612); format: functional
[16] = target: T2, Serine/threonine-protein phosphatase (Candida dubliniensis (strain CD36 / CBS 7987 / NCPF 3949 / NRRLY-17841) (Yeast), UniProt B9W6M3); assay: calcineurin pathway inhibitors in yeast reporter, dose response, S. cerevisiae, CDRE-lacZ, luminescence, secondary (AID 2388); format: functional, cell-based;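 note: yeast reporter cells carrying a calcineurin-responsive lacZ construct stimulated with calcium chloride; luminescent beta-galactosidase reporter signal in whole cells rather than isolated phosphatase activity; potency for inhibition where a drop in reporter signal means calcineurin blockade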
T2 sequence (B9W6M3 whole entry): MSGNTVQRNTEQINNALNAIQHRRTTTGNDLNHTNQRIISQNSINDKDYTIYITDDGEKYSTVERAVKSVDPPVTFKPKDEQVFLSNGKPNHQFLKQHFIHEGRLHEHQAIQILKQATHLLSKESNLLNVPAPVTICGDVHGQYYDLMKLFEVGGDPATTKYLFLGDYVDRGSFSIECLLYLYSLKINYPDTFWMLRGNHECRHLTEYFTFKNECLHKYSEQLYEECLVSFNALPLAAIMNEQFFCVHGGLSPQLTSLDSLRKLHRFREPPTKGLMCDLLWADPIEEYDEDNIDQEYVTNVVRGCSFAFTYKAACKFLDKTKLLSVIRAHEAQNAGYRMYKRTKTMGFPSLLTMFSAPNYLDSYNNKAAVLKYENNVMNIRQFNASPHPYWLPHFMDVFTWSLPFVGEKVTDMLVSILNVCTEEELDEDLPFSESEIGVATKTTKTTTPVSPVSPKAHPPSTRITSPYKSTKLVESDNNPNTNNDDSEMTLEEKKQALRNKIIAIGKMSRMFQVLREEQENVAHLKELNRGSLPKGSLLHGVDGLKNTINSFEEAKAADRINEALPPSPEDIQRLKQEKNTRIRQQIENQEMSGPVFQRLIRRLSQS

[17] = NIH-3T3 fibroblast cytotoxicity, dose response, cytotoxicity control, cell-based, fluorescence, Alamar Blue, secondary assay (AID 2327); format: functional;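 note: NIH-3T3 mouse fibroblasts cultured with fluconazole at 8 µg/mL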
[18] = target: T3, Cytochrome P450 1A2 (Homo sapiens, UniProt P05177);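 note: PubChem cytochrome P450 panel assay, CYP1A2 panel member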
T3 sequence (P05177 whole entry): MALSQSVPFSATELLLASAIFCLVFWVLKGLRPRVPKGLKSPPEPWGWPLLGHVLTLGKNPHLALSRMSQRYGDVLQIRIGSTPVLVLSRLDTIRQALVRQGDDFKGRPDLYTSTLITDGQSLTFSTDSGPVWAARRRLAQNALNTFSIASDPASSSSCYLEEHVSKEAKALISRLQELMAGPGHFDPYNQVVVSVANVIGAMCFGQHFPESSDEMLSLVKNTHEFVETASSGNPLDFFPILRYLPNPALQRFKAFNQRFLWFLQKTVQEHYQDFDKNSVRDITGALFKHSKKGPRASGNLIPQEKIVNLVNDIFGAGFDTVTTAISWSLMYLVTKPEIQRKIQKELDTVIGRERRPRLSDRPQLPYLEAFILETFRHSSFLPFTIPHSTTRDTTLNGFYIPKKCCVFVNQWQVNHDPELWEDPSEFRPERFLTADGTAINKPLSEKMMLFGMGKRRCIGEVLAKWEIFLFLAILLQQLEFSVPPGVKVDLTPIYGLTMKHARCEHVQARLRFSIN

Chain of Serine/threonine-protein kinase PLK1 (P53350 whole entry): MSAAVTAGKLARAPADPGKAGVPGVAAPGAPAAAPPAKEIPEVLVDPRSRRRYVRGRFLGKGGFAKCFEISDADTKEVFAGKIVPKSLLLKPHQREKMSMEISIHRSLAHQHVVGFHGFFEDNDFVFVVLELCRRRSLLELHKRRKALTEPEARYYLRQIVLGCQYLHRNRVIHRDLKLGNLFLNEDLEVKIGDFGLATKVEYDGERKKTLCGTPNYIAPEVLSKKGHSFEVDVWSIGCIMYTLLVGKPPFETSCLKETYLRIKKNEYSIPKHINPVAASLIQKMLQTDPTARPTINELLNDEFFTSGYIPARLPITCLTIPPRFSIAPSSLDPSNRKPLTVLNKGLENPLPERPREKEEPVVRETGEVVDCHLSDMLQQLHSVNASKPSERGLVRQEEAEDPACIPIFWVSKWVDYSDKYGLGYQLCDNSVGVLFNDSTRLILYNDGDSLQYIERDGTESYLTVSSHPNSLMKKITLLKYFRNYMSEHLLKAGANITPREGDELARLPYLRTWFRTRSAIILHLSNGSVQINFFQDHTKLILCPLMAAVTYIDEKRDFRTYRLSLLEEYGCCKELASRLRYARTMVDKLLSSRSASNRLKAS
Chain of Tyrosine-protein kinase receptor TYRO3 (Q06418 whole entry): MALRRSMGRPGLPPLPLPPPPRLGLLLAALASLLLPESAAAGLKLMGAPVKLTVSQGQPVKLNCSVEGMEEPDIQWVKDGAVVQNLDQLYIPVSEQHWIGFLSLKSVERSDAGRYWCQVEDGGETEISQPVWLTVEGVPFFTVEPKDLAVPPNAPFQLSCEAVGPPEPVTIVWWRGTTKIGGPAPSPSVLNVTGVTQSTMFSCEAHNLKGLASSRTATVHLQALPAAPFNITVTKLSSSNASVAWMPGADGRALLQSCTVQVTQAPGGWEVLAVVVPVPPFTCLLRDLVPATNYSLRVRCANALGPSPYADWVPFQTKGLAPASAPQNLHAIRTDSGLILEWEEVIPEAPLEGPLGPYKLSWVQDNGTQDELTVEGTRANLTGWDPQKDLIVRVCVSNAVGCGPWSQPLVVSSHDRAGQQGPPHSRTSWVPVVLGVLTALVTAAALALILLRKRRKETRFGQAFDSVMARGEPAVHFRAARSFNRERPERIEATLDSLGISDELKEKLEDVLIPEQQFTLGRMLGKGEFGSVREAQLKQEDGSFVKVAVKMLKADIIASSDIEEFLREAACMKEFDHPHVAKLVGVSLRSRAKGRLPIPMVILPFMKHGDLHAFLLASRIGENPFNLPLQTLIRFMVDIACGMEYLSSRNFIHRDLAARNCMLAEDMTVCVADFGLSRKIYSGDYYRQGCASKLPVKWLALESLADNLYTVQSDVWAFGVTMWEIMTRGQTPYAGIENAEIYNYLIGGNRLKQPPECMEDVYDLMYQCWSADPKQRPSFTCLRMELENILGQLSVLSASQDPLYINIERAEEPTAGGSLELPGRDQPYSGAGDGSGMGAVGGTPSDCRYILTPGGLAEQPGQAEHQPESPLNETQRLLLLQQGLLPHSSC
Chain of Protein kinase C theta type (Q04759 whole entry): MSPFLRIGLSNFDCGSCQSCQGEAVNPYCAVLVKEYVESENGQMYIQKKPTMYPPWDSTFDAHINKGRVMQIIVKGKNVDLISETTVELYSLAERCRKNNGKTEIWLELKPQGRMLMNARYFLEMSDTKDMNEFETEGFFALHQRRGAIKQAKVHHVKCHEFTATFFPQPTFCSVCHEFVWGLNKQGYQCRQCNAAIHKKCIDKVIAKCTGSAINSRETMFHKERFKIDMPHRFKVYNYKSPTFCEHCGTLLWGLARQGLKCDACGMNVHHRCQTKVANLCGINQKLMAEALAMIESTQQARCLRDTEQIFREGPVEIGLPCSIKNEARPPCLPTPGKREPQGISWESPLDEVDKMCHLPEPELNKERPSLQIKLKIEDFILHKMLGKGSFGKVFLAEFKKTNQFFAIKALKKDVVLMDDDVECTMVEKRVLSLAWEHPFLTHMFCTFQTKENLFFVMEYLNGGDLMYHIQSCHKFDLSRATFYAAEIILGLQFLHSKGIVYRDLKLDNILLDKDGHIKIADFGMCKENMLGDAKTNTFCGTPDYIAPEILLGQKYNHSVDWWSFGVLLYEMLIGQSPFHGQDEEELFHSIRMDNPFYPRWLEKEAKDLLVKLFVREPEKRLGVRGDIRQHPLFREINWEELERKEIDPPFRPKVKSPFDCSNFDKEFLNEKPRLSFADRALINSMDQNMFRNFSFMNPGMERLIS
Chain of Testis-specific serine/threonine-protein kinase 2 (Q96PF2 whole entry): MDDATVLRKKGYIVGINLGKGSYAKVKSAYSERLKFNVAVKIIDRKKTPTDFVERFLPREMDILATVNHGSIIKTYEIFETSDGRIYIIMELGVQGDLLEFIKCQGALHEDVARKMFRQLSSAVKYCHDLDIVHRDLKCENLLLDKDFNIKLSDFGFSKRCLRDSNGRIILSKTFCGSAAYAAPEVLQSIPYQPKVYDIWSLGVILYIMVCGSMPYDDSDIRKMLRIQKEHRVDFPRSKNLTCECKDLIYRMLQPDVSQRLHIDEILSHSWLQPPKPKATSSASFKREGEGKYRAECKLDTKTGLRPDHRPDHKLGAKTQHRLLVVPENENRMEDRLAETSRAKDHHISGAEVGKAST
Chain of Proto-oncogene tyrosine-protein kinase receptor Ret (P07949 whole entry): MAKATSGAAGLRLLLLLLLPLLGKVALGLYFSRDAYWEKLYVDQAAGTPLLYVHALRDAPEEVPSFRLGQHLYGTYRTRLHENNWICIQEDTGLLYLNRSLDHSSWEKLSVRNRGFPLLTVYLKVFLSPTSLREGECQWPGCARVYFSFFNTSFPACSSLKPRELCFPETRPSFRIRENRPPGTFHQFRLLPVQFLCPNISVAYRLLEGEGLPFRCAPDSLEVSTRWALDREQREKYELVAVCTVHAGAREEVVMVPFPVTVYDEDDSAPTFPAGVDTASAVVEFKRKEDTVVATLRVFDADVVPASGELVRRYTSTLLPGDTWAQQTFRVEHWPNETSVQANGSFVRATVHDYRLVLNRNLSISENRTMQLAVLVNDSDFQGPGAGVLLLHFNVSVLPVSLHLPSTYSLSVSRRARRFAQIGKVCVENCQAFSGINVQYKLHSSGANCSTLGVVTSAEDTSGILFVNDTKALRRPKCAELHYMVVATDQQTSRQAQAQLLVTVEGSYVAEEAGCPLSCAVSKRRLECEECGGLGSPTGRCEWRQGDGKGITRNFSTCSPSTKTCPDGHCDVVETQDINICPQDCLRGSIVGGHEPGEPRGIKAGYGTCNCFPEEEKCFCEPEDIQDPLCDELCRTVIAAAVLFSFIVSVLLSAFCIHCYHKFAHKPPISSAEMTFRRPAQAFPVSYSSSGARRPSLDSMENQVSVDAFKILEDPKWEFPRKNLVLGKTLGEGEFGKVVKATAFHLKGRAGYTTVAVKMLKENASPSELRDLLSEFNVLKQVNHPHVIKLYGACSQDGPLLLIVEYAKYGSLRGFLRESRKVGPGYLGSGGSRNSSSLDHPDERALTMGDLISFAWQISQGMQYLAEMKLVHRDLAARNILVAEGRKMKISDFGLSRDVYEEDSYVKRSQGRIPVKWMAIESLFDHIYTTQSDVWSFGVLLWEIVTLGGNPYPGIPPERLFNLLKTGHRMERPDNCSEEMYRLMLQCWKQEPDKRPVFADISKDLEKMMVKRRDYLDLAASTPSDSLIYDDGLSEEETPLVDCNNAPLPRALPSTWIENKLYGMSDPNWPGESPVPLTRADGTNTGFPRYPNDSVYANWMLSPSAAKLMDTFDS
Chain of Serine/threonine-protein kinase PLK4 (O00444 whole entry): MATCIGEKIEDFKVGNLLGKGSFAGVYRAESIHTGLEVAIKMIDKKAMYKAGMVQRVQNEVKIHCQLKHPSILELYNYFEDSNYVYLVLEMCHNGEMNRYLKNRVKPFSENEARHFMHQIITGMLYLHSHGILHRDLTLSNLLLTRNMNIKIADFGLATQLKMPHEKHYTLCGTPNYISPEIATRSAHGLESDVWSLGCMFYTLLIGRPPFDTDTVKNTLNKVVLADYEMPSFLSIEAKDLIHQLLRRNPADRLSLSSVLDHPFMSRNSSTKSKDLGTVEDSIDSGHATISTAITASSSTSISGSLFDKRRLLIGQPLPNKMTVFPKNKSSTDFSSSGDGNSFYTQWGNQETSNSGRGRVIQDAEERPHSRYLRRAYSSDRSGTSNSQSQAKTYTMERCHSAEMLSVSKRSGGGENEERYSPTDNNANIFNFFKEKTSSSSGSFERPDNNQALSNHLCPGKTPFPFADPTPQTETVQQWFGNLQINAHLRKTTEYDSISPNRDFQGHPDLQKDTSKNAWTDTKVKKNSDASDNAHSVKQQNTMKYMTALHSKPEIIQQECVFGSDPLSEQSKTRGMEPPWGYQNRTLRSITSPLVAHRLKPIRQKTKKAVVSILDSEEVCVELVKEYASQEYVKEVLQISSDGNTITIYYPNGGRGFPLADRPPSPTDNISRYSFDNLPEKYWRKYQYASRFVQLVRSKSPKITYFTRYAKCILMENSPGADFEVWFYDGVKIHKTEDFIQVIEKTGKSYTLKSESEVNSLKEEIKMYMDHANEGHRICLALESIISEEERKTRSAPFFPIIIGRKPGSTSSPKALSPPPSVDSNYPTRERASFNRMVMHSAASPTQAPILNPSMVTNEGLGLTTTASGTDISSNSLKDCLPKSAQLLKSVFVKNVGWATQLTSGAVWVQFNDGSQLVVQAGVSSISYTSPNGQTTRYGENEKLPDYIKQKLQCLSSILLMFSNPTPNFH

Question: Which results are given for `O=C(NN1C(=O)CSC1=S)C(=O)NN1C(=O)CSC1=S`?
Answer: IC50 [1]: 12.8 µM (active); IC50 [2]: > 100 µM (inactive)

Question: For `O=C1NC(=S)S/C1=C\C=C\c1ccc([N+](=O)[O-])o1`, which AC50 [3] is on record?
Answer: Its AC50 is 12.5 µM (active).

Question: For `COC(=O)C1CN(C#N)N(c2ccc(Cl)cc2)C12c1ccccc1-c1ccccc12` (stereo not drawn), which AC50 [4] is on record?
Answer: Its AC50 is 8.85 µM (active).

Question: For `Nc1noc2cccc(-c3cccc(O)c3)c12`, which Ki [5] is on record?
Answer: Its Ki is 7.94 µM (active).

Question: And the Ki [6]?
Answer: The Ki was 20 µM (active).

Question: What about the Ki [7] of the same compound?
Answer: Its Ki is 2 µM (active).

Question: What about the Ki [8] of the same compound?
Answer: The Ki was > 2 µM (inactive).

Question: What about the Ki [9] of the same compound?
Answer: Its Ki is 0.794 µM (active).

Question: And the Ki [10]?
Answer: Its Ki is > 10 µM (inactive).

Question: What about the Ki [11] of the same compound?
Answer: The Ki was > 7.94 µM (inactive).

Question: What about the Ki [12] of the same compound?
Answer: Its Ki is > 10 µM (inactive).

Question: And the Ki [13]?
Answer: Its Ki is > 1.58 µM (inactive).

Question: What about the Ki [14] of the same compound?
Answer: Its Ki is > 7.94 µM (inactive).

Question: What about the Ki [15] of the same compound?
Answer: The Ki was 2.51 µM (active).

Question: For `CN(C)S(=O)(=O)Oc1cccc(C(=O)Nc2ccc(Cl)c(Cl)c2)c1`, which EC50 [16] is on record?
Answer: Its EC50 is > 180 µM (inactive).

Question: What about the EC50 [17] of the same compound?
Answer: Its EC50 is > 150 µM (inactive).

Question: What about the AC50 [18] of the same compound?
Answer: The AC50 was 2 µM (inconclusive).
